Measurements as given in patent US10131928B2, “Inositol biotransformation” (University Court of the University of St Andrews, priority 2013, dated 2018).
Read-outs that look alike come from different tables or passages of the source.

What was measured:
Format in all cases: biochemical
TbINO1 [1] = molecular target: T1, TbINO1 (Trypanosoma brucei brucei, UniProt Q5QQ46); experiment: biochemical
T1 construct: Hexa-His (N); made in house; host or cells: E. coli BL21 Rosetta (DE3)
T1 sequence (Q5QQ46 1-528): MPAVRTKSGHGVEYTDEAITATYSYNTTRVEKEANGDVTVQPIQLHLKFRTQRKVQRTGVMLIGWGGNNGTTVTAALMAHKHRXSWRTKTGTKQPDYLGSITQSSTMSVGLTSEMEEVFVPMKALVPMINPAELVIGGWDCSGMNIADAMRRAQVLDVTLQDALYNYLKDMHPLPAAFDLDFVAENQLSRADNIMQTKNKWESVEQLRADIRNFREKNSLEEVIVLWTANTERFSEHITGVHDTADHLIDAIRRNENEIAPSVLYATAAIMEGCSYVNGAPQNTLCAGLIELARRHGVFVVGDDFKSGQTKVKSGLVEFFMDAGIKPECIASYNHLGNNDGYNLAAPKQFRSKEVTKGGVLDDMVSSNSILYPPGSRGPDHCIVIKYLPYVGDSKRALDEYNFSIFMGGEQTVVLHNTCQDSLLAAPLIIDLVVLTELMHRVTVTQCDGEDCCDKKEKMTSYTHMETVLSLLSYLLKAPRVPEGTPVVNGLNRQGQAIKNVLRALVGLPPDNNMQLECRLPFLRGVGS
Experimental: (§1) An alternative reaction mixture consisted of 2 mM Tris-Ac (pH 9), 2 mM glucose-6-phosphate, 1 mM NAD^+, 1 mM DTT, 2 mM NH4Ac and 5 μg protein in a final volume of 20 μL. The reaction was incubated at 37° C. for 1 hr and terminated by heating at 100° C. for 10 min and the addition of 80 μL of 10 mM NaOH. For inhibitor studies the standard reaction mixture was prepared without glucose-6-phosphate, the inhibitor was added to the reaction and incubated on ice for 10 min prior to the addition of glucose-6-phosphate and subsequent incubation of 37° C. for 1 hr.
(§2) After quenching the reaction mix was analysed by high performance anion-exchange chromatography using a Dionex HPLC system with a CarboPacPA-1 column and PA-1 guard column (Dionex). The column was pre-equilibrated with 95% Buffer A (1 mM sodium hydroxide) and 5% Buffer B (1M sodium acetate+1 mM sodium hydroxide). An aliquot (20 μL) of the quenched reaction mixture was injected onto the column and eluted a linear gradient of 5-40% […], detected with pulsed amperometric detection and analysed with Chromeleon software (Dionex).
(§3) The TbINO1 was pre-incubated with potential inhibitor prior to the addition of glucose-6-phosphate or fructose-6-phosphate and quantification of inositol-3-phosphate and fructose-6-phosphate by HPLC.

TbINO1 [2] = molecular target: T1, TbINO1; experiment: biochemical; remark: listed apart in the source
Experimental: as §1, §2, §3

TbINO1 [3] = molecular target: T1, TbINO1; experiment: Compounds tested as substrates for TbINO1 in the standard reaction mixture, products separated by HPLC; conditions: tested as substrate, longer time periods; intermediate conversion to glucose-6-phosphate
Experimental: as §1
as §2, with “software (Dionex). The substrate glucose-6-phosphate and the product inositol-3-phosphate are clearly separated by this method. […]” for “software (Dionex).”

[4] = Table 2, inhibitor pre-incubated with recombinant TbINO1, fructose-6-phosphate as substrate, read-out: IC50 PGI activity
[5] = Table 2, inhibitor pre-incubated with recombinant TbINO1, glucose-6-phosphate as substrate, read-out: IC50 INO1 activity
[6] = Table 3, metabolic intermediates, pre-incubated, fructose-6-phosphate as substrate, read-out: IC50 PGI activity
[7] = Table 3, metabolic intermediates, pre-incubated, glucose-6-phosphate as substrate, read-out: IC50 INO1 activity

| SMILES | IC50 (TbINO1 [1]; [4]) [mM] | IC50 (TbINO1 [2]; [5]) [mM] | IC50 (TbINO1 [1]) [mM] | IC50 (TbINO1 [2]) [mM] | inhibition of PGI (glucose-6-phosphate isomerase) activity (TbINO1 [1]) | inhibition of INO1 activity (TbINO1 [2]) | IC50 (TbINO1 [1]; [6]) [mM] | IC50 (TbINO1 [2]; [7]) [mM] | conversion to inositol-3-phosphate by TbINO1 (TbINO1 [3]) |
| --- | --- | --- | --- | --- | --- | --- | --- | --- | --- |
| COC1O[C@H](COP(=O)(O)O)[C@@H](O)[C@H](O)[C@H]1O (some centres unmarked) [1-OMe-Glucose-6-P, glucose-1-O-methyl-6-phospahte] | 2.5 | 2.5 |  |  |  |  |  |  |  |
| O=P(O)(O)OC[C@H]1OC(O)C[C@@H](O)[C@@H]1O (some centres unmarked) [2-Deoxyglucose-6-P] |  |  | 4 | 4 |  |  |  |  |  |
| O=CC[C@@H](O)[C@H](O)[C@H](O)CO [2-Deoxyglucose] |  |  | > 10 | > 10 |  |  |  |  |  |
| O=P(O)(O)OC[C@H]1OC(O)[C@H](F)[C@@H](O)[C@@H]1O (some centres unmarked) [2-F-Glucose-6-P, 2-fluoro-glucose-6-phospahte] | 1 | 1 |  |  |  |  |  |  |  |
| O=P(O)(O)OC[C@H]1OC(O)[C@H](O)[C@@H](F)[C@@H]1O (some centres unmarked) [3-F-Glucose-6-P, 3-fluoro-glucose-6-phospahte] |  |  | 2.5 | 2.5 |  |  |  |  |  |
| O=P(O)(O)OC[C@H]1OC(O)[C@H](O)[C@@H](O)[C@@H]1F (some centres unmarked) [4-F-Glucose-6-P, 4-fluoro-glucose-6-phospahte] |  |  | > 10 | > 10 |  |  |  |  |  |
| O=C(O)[C@H](O)[C@@H](O)[C@H](O)[C@H](O)COP(=O)(O)O [6-phosphogluconic acid] |  |  | > 10 | > 10 | No inhibition | No inhibition |  |  |  |
| CC(=O)N[C@H]1C(OP(=O)(O)O)O[C@H](CO)[C@@H](O)[C@@H]1O (some centres unmarked) [Acetylglucosamine-1-P, acetylglucosamine-1-phosphate] | > 10 | > 10 |  |  | No inhibition | No inhibition |  |  |  |
| CC(=O)N[C@H]1C(O)O[C@H](COP(=O)(O)O)[C@@H](O)[C@@H]1O (some centres unmarked) [Acetylglucosamine-6-P, acetylglucosamine-6-phosphate] | > 10 | > 10 |  |  | No inhibition | No inhibition |  |  |  |
| O=C(CO)COP(=O)(O)O [DHAP] |  |  |  |  | Inhibition was observed | Inhibition was observed | 3 | 3 |  |
| O=C(CO)CO [DHA] |  |  |  |  | no inhibition | no inhibition | > 10 | > 10 |  |
| O=C[C@H](O)COP(=O)(O)O [GAP] |  |  |  |  | Inhibition was observed | Inhibition was observed | 2 | 2 |  |
| O=C[C@H](O)[C@@H](O)[C@@H](O)[C@H](O)COP(=O)(O)O [Galactose-6-P, galactose-6-phosphate] |  |  | > 10 | > 10 | No inhibition | No inhibition |  |  |  |
| O=P(O)(O)O[C@H]1O[C@H](CO)[C@@H](O)[C@H](O)[C@H]1O [Glucose-1-P, glucose-1-phosphate] | > 10 | > 10 |  |  | No inhibition | No inhibition |  |  |  |
| O=CC(O)CO (centres unmarked) [Glyceraldehyde, glyceraldehyde] |  |  | > 10 | > 10 | no inhibition | no inhibition |  |  |  |
| O=P(O)(O)OCC(O)CO (centres unmarked) [Glycerophosphate] | > 10 | > 10 |  |  | No inhibition | No inhibition |  |  |  |
| O=C[C@@H](O)[C@@H](O)[C@H](O)[C@H](O)COP(=O)(O)O [Mannose-6-P, mannose-6-phosphate] |  |  | > 10 | > 10 | No inhibition | No inhibition |  |  |  |
| O=C(O)CC(=O)C(=O)O [OAA] |  |  |  |  | Inhibition was observed | Inhibition was observed | 2 | 1.5 |  |
| C=C(OP(=O)(O)O)C(=O)O [PEP] |  |  |  |  | No inhibition | No inhibition | > 10 | > 10 |  |
| CC(=O)C(=O)O [Pyruvate, pyruvate] |  |  | > 10 | > 10 |  |  |  |  |  |
| CCCC(CCC)C(=O)O [VPA] |  |  |  |  | No inhibition | No inhibition | > 10 | > 10 |  |
| O=C(CO)[C@@H](O)[C@H](O)[C@H](O)COP(=O)(O)O [fructose-6-phosphate] |  |  |  |  |  |  |  |  | quantitative conversion |
